Source: the supplement of paper PMC10307832

How the values were obtained:
Assay in all cases: relative viability (nuclei count vs DMSO), 5 days (fraction); higher = more cells survive
Vemurafenib + Foretinib = compound: CCCS(=O)(=O)Nc1ccc(F)c(C(=O)c2c[nH]c3ncc(-c4ccc(Cl)cc4)cc23)c1F [Vemurafenib] + COc1cc2c(Oc3ccc(NC(=O)C4(C(=O)Nc5ccc(F)cc5)CC4)cc3F)ccnc2cc1OCCCN1CCOCC1 [Foretinib] (partner 0.25 µM)
Outline: (§1)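 Relative viability is defined as nuclei in treated wells over nuclei in vehicle wells. Duplicate plates were run and medians reported. Lung cancer cell lines in 1536-well plates were dosed by pin tool one day after seeding, with one drug or with a fixed anchor-drug dose plus five library-drug doses (not always all listed) in √10 steps, and nuclei were counted after 5 days.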

Vemurafenib + Pemetrexed = compound: CCCS(=O)(=O)Nc1ccc(F)c(C(=O)c2c[nH]c3ncc(-c4ccc(Cl)cc4)cc23)c1F [Vemurafenib] + Nc1nc2[nH]cc(CCc3ccc(C(=O)N[C@@H](CCC(=O)O)C(=O)O)cc3)c2c(=O)[nH]1 [Pemetrexed] (partner 0.2 µM)
Outline: as §1

Vemurafenib + Decitabine = compound: CCCS(=O)(=O)Nc1ccc(F)c(C(=O)c2c[nH]c3ncc(-c4ccc(Cl)cc4)cc23)c1F [Vemurafenib] + Nc1ncn([C@H]2C[C@H](O)[C@@H](CO)O2)c(=O)n1 [Decitabine] (partner 2 µM)
Outline: as §1

Alpelisib + Foretinib = compound: Cc1nc(NC(=O)N2CCC[C@H]2C(N)=O)sc1-c1ccnc(C(C)(C)C(F)(F)F)c1 [Alpelisib] + COc1cc2c(Oc3ccc(NC(=O)C4(C(=O)Nc5ccc(F)cc5)CC4)cc3F)ccnc2cc1OCCCN1CCOCC1 [Foretinib] (partner 0.25 µM)
Outline: as §1

Cell Line	relative viability (Vemurafenib + Foretinib; first compound 0.03162 µM)	relative viability (Vemurafenib + Foretinib; first compound 0.1 µM)	relative viability (Vemurafenib + Foretinib; first compound 0.3162 µM)	relative viability (Vemurafenib + Foretinib; first compound 1 µM)	relative viability (Vemurafenib + Pemetrexed; first compound 0.03162 µM)	relative viability (Vemurafenib + Pemetrexed; first compound 0.1 µM)	relative viability (Vemurafenib + Pemetrexed; first compound 0.3162 µM)	relative viability (Vemurafenib + Pemetrexed; first compound 1 µM)	relative viability (Vemurafenib + Decitabine; first compound 0.03162 µM)	relative viability (Vemurafenib + Decitabine; first compound 0.1 µM)	relative viability (Vemurafenib + Decitabine; first compound 0.3162 µM)	relative viability (Vemurafenib + Decitabine; first compound 1 µM)	relative viability (Alpelisib + Foretinib; first compound 0.04 µM)	relative viability (Alpelisib + Foretinib; first compound 0.1265 µM)	relative viability (Alpelisib + Foretinib; first compound 0.4 µM)	relative viability (Alpelisib + Foretinib; first compound 1.265 µM)	relative viability (Alpelisib + Foretinib; first compound 4 µM)
NCI-H2342	1.14	0.943	1.05	0.942	0.75	0.834	0.684	0.784	0.705	0.702	0.773	0.706	1.01	1.08	1.07	0.767	0.753
SW 1573	0.906	0.893	0.955	0.891	0.872	0.777	0.798	0.832	0.386	0.442	0.484	0.452	0.854	0.713	0.823	0.696	0.724
NCI-H1792					0.59	0.787		0.747	0.539	0.564		0.477					
LOU-NH91	0.914			0.975	0.372	0.464	0.337	0.382	0.74	0.638	0.703	0.863	0.933	0.853	0.81	0.738	0.754
LC-2-ad	0.859	0.705		1.01	0.252	0.254	0.249	0.276	0.8	0.706	0.859	0.796	0.863	0.908	0.966	0.601	0.576
HOP-62	1.06	1.08	0.916	1.05	0.368	0.318	0.208	0.354	0.196	0.202	0.216	0.2	1.08	1.15	1.23	1.02	0.978
NCI-H650	1.01	0.983		0.879	0.909	0.913	0.551	0.702	0.311	0.334	0.308	0.33	1.03	0.988	1.01	0.839	0.822
NCI-H1651	0.647	0.742	0.88	0.789	0.555	0.626	0.508	0.579	0.532	0.633	0.494	0.621	0.683	0.853	0.791	0.571	0.741
CAL-12T	1.15	0.828	1.33	1.09	1.16	1.15	1.52	1.17					1.08	1.24	1.14	1.06	1.07
LK-2	1.37	0.913	1.09	0.915	0.247	0.274	0.26	0.304	0.243	0.342	0.321	0.254	1.07	1.19	1.28	0.906	0.932
NCI-H727	0.883	0.768	1.31	0.969					0.688	0.762	0.964	0.866	0.897	0.772	0.771	0.645	0.676
IA-LM	1.16	1.26	1.08	0.981									1.03	1.31	1.11	1.12	1.13
HCC-44					0.617	0.609	0.654	0.625	0.869	1.02	0.949	1					
NCI-H1703	0.358	0.307	0.329	0.374									0.295	0.362	0.381	0.271	0.303
NCI-H1563	0.859	0.976	0.93	0.935	0.708	0.627	0.681	0.65					0.861	0.95	0.909	0.713	0.748
NCI-H2228	0.845	0.931	0.828	0.869	0.315	0.321	0.391	0.323					0.82	0.927	0.701	0.613	0.404
EBC-1	0.108	0.0915	0.104	0.11									0.101	0.0979	0.0957	0.108	0.114
NCI-H1299	1.05	1.06	1	1.09									1.12	1.12	1.19	0.978	1.12
NCI-H1623	0.896		1.03	0.768									0.833	0.744	0.845	0.54	0.494
NCI-H522					0.855	0.98	0.867	1.2	0.668	0.607	0.624	0.692					
NCI-H1648						0.671	1.01	0.748		0.351	0.762	0.463					
A549	0.945	0.872	0.986	0.919					0.163	0.227	0.155	0.224	0.926	0.875	0.956	0.662	0.599
ABC-1	1.05	1.16	1.19	1.05					1.01	1.13	0.967	0.977	1.28	0.876	0.878	0.611	0.78
Calu-6	0.841	0.855	0.885	0.757									0.926	0.842	0.931	0.871	0.617
